Laboratory results taken from PubChem BioAssay (NCI).
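All cell lines were grown in 96-well plates and treated with compound for 48 hours. TGI is the concentration that stops growth completely.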

Columns and labels:
Assay in all cases: NCI anticancer screen, dose series, 48 h
UACC-62 melanoma = test system: UACC-62 melanoma
UO-31 renal = test system: UO-31 renal
SF-268 CNS = test system: SF-268 CNS
HCC-2998 colon = test system: HCC-2998 colon
CCRF-CEM leukemia = test system: CCRF-CEM leukemia
KM12 colon = test system: KM12 colon
SK-MEL-2 melanoma = test system: SK-MEL-2 melanoma
OVCAR-5 ovarian = test system: OVCAR-5 ovarian
NCI-H23 lung = test system: NCI-H23 lung
SNB-75 CNS = test system: SNB-75 CNS
HCT-116 colon = test system: HCT-116 colon
NCI-H226 lung = test system: NCI-H226 lung
M19-MEL melanoma = test system: M19-MEL melanoma
M14 melanoma = test system: M14 melanoma
IGROV1 ovarian = test system: IGROV1 ovarian
DMS 273 small cell lung = test system: DMS 273 small cell lung
OVCAR-4 ovarian = test system: OVCAR-4 ovarian
NCI-H460 lung = test system: NCI-H460 lung
HT29 colon = test system: HT29 colon
K-562 leukemia = test system: K-562 leukemia
RXF 393 renal = test system: RXF 393 renal
DLD-1 colon = test system: DLD-1 colon
SF-295 CNS = test system: SF-295 CNS
RPMI-8226 leukemia = test system: RPMI-8226 leukemia
OVCAR-3 ovarian = test system: OVCAR-3 ovarian
CAKI-1 renal = test system: CAKI-1 renal
HCT-15 colon = test system: HCT-15 colon
EKVX NSCLC = test system: EKVX NSCLC
SR leukemia = test system: SR leukemia
TK-10 renal = test system: TK-10 renal
UACC-257 melanoma = test system: UACC-257 melanoma
OVCAR-8 ovarian = test system: OVCAR-8 ovarian
LOX IMVI melanoma = test system: LOX IMVI melanoma
SK-MEL-28 melanoma = test system: SK-MEL-28 melanoma
SK-MEL-5 melanoma = test system: SK-MEL-5 melanoma
MALME-3M melanoma = test system: MALME-3M melanoma
COLO 205 colon = test system: COLO 205 colon
KM20L2 colon = test system: KM20L2 colon
DMS 114 small cell lung = test system: DMS 114 small cell lung
NCI-H522 lung = test system: NCI-H522 lung
SN12C renal = test system: SN12C renal
MOLT-4 leukemia = test system: MOLT-4 leukemia
U251 CNS = test system: U251 CNS
LXFL 529 NSCLC = test system: LXFL 529 NSCLC
SW-620 colon = test system: SW-620 colon
HOP-92 NSCLC = test system: HOP-92 NSCLC
HOP-62 NSCLC = test system: HOP-62 NSCLC
SK-OV-3 ovarian = test system: SK-OV-3 ovarian
ACHN renal = test system: ACHN renal
A549 NSCLC = test system: A549 NSCLC
A498 renal = test system: A498 renal
SF-539 CNS = test system: SF-539 CNS
HL-60(TB) leukemia = test system: HL-60(TB) leukemia
786-0 renal = test system: 786-0 renal
HOP-18 NSCLC = test system: HOP-18 NSCLC

Measured: TGI

C[C@H](O)C(=O)SC[C@H](NC(=O)CC[C@@H](N)C(=O)O)C(=O)NCC(=O)O
not listed: A549 NSCLC | A498 renal | SF-539 CNS | HL-60(TB) leukemia | 786-0 renal | HOP-18 NSCLC
> 100 µM: all other assays above

Cn1c(N)c(-c2c3ccccc3nc3ccccc23)c(=O)n(C)c1=O
not listed: UO-31 renal | HCC-2998 colon | SNB-75 CNS | NCI-H226 lung | DMS 273 small cell lung | NCI-H460 lung | DLD-1 colon | SR leukemia | UACC-257 melanoma | LOX IMVI melanoma | HOP-62 NSCLC | ACHN renal
> 100 µM: all other assays above
